Read-outs that look alike come from different tables or passages of the source. Marks after values point to notes of the source that are not given here. Blank lines part the entries; values can stand above or below the compound they belong to.
Experiments:
[1] = Safety: adverse events by NCI-CTCAE v4.0, phase 1 study Part 1; type: in vivo, human
Method: We defined the dose-limiting toxicity (DLT) period as the first 28 days of each dose-escalation cohort’s treatment cycle (DLT window). […] Non-hematologic DLTs included grade ≥3 nausea, vomiting, or diarrhea enduring >48 hours despite standard medical management, grade 3 fatigue persisting >7 days or grade 4 fatigue, any grade ≥3 metabolic laboratory abnormalities that are not controlled within 48 hours by standard medical management.

[2] = Plasma pharmacokinetics of trametinib and dabrafenib at steady state (LC-MS/MS, noncompartmental); type: in vivo, human; details: for Cmax / AUC(0-t) / Tmax: human, plasma, oral
Method: We, therefore, collected samples on these days to perform dabrafenib and trametinib PK analysis.
We determined plasma concentrations of trametinib, dabrafenib, and hydroxy- and desmethyl-dabrafenib metabolites with a validated assay using liquid-liquid extraction of samples spiked with the stable isotope internal standards for each analyte followed by analysis using LC-MS/MS detection. The validated concentration ranges for quantitation were 0.250 to 250 ng/mL for trametinib and 1.00 to 1,000 ng/mL for dabrafenib and its metabolites. We calculated concentrations using a linear regression calibration model with a 1/x^2 weighting factor.
The following PK parameters were estimated: maximum observed plasma concentration (Cmax), time to reach Cmax (tmax), area-under-the-plasma concentration-time curve (AUC), terminal phase half-life (t1/2,z), and apparent total body clearance (CL/F). We performed noncompartmental analyses for PK parameter estimation using Phoenix® WinNonlin® version 6.4 or later software (Certara™, Princeton, NJ). […] We prepared descriptive statistics, tables, and graphs using Phoenix® WinNonlin® and Prism version 9.1.1 (GraphPad Software, San Diego, CA).

[3] = trametinib 2 mg QD, Cycle 2 Day 7 with AMG 232, Arm 2 cohort 1 (AMG 232 120 mg), geometric mean (CV%)
[4] = trametinib 2 mg QD, Cycle 2 Day 7 with AMG 232, Arm 2 cohort 3 (AMG 232 240 mg), geometric mean (CV%)

Effect of AMG 232 co-administration on trametinib PK ([2]; cycle 2 day 7 vs cycle 1 day 21): does not appear to affect | Cmax ([2]; 2 mg, trametinib 2 mg QD, Cycle 1 Day 21 without AMG 232, Arm 2 cohort 1 (AMG 232 120 mg), geometric mean (CV%)): 21.5 ng/mL | AUC(0-t) ([2]; 2 mg, trametinib 2 mg QD, Cycle 1 Day 21 without AMG 232, Arm 2 cohort 1 (AMG 232 120 mg), geometric mean (CV%), read-out: AUC24hr): 370 ng·h/mL | Cmax ([2]; 2 mg, trametinib 2 mg QD, Cycle 1 Day 21 without AMG 232, Arm 2 cohort 2 (AMG 232 180 mg), geometric mean (CV%)): 25.3 ng/mL | Tmax ([2]; 2 mg, trametinib 2 mg QD, Cycle 1 Day 21 without AMG 232, Arm 2 cohort 2 (AMG 232 180 mg), median (min-max), read-out: tmax): 4 h | Cmax ([2]; 2 mg, trametinib 2 mg QD, Cycle 1 Day 21 without AMG 232, Arm 2 cohort 3 (AMG 232 240 mg), geometric mean (CV%)): 22.1 ng/mL | Tmax ([2]; 2 mg, trametinib 2 mg QD, Cycle 1 Day 21 without AMG 232, Arm 2 cohort 3 (AMG 232 240 mg), median (min-max), read-out: tmax): 2 h | Cmax ([2]; trametinib 2 mg QD, Cycle 1 Day 21 without AMG 232, Arm 1 cohort 1 (AMG 232 120 mg), geometric mean (CV%)): 20.1 ng/mL | AUC(0-t) ([2]; trametinib 2 mg QD, Cycle 1 Day 21 without AMG 232, Arm 1 cohort 1 (AMG 232 120 mg), geometric mean (CV%), read-out: AUC24hr): 326 ng·h/mL | Tmax ([2]; trametinib 2 mg QD, Cycle 1 Day 21 without AMG 232, Arm 1 cohort 1 (AMG 232 120 mg), median (min-max), read-out: tmax): 2 h | Cmax ([2]; trametinib 2 mg QD, Cycle 1 Day 21 without AMG 232, Arm 1 cohort 2 (AMG 232 180 mg), geometric mean (CV%)): 24.1 ng/mL | AUC(0-t) ([2]; trametinib 2 mg QD, Cycle 1 Day 21 without AMG 232, Arm 1 cohort 2 (AMG 232 180 mg), geometric mean (CV%), read-out: AUC24hr): 362 ng·h/mL | Tmax ([2]; trametinib 2 mg QD, Cycle 1 Day 21 without AMG 232, Arm 1 cohort 2 (AMG 232 180 mg), median (min-max), read-out: tmax): 2 h | Cmax ([2]; trametinib 2 mg QD, Cycle 2 Day 7 with AMG 232, Arm 1 cohort 1 (AMG 232 120 mg), geometric mean (CV%)): 22.4 ng/mL | AUC(0-t) ([2]; trametinib 2 mg QD, Cycle 2 Day 7 with AMG 232, Arm 1 cohort 1 (AMG 232 120 mg), geometric mean (CV%), read-out: AUC24hr): 338 ng·h/mL | Tmax ([2]; trametinib 2 mg QD, Cycle 2 Day 7 with AMG 232, Arm 1 cohort 1 (AMG 232 120 mg), median (min-max), read-out: tmax): 2 h | Cmax ([2]; trametinib 2 mg QD, Cycle 2 Day 7 with AMG 232, Arm 1 cohort 2 (AMG 232 180 mg), geometric mean (CV%)): 25.9 ng/mL | AUC(0-t) ([2]; trametinib 2 mg QD, Cycle 2 Day 7 with AMG 232, Arm 1 cohort 2 (AMG 232 180 mg), geometric mean (CV%), read-out: AUC24hr): 402 ng·h/mL | Tmax ([2]; trametinib 2 mg QD, Cycle 2 Day 7 with AMG 232, Arm 1 cohort 2 (AMG 232 180 mg), median (min-max), read-out: tmax): 2 h | Cmax [2, 3]: 24.8 ng/mL | Tmax ([2]; trametinib 2 mg QD, Cycle 2 Day 7 with AMG 232, Arm 2 cohort 1 (AMG 232 120 mg), median (min-max), read-out: tmax): 2 h | Cmax ([2]; trametinib 2 mg QD, Cycle 2 Day 7 with AMG 232, Arm 2 cohort 2 (AMG 232 180 mg), n = 1): 21.8 ng/mL | AUC(0-t) ([2]; trametinib 2 mg QD, Cycle 2 Day 7 with AMG 232, Arm 2 cohort 2 (AMG 232 180 mg), n = 1, read-out: AUC24hr): 463 ng·h/mL | Tmax ([2]; trametinib 2 mg QD, Cycle 2 Day 7 with AMG 232, Arm 2 cohort 2 (AMG 232 180 mg), n = 1, read-out: tmax): 2 h | Cmax [2, 4]: 24.3 ng/mL | Tmax ([2]; trametinib 2 mg QD, Cycle 2 Day 7 with AMG 232, Arm 2 cohort 3 (AMG 232 240 mg), median (min-max), read-out: tmax): 2 h | Tmax ([2]; trametinib, cycle 2, day 7, with AMG 232 co-administration, across dose cohorts, read-out: median tmax): 1 to 3 h | AUC24hr ([2]; trametinib 2 mg QD, Cycle 1 Day 21 without AMG 232, Arm 2 cohort 2 (AMG 232 180 mg), geometric mean (CV%)): 471 (26.7%) n = 5 hr•ng/mL | AUC24hr ([2]; trametinib 2 mg QD, Cycle 1 Day 21 without AMG 232, Arm 2 cohort 3 (AMG 232 240 mg), geometric mean (CV%)): 385 (22.9%) n = 6 hr•ng/mL | AUC24hr [2, 3]: 468 (23.5%)^a n = 3 hr•ng/mL | AUC24hr [2, 4]: 351 (41.9%)^a n = 4 hr•ng/mL | median tmax ([2]; trametinib, cycle 1, day 21, without AMG 232 co-administration, across dose cohorts): 2 h
Compound: CC(=O)Nc1cccc(-n2c(=O)n(C3CC3)c(=O)c3c(Nc4ccc(I)cc4F)n(C)c(=O)c(C)c32)c1 [trametinib]
Patients discontinuing trametinib due to AEs ([1]; all 31 patients, n=6): 19%

Effect of AMG 232 on dabrafenib exposures ([2]; dabrafenib and trametinib with and without AMG 232): not significantly altered | Cmax ([2]; 150 mg BID, dabrafenib 150 mg BID, Cycle 1 Day 21, T + D without AMG 232, Arm 1 cohort 1 (AMG 232 120 mg), geometric mean (CV%)): 1740 ng/mL | AUC(0-t) ([2]; 150 mg BID, dabrafenib 150 mg BID, Cycle 1 Day 21, T + D without AMG 232, Arm 1 cohort 1 (AMG 232 120 mg), geometric mean (CV%), read-out: AUC6hr): 4840 ng·h/mL | Cmax ([2]; 150 mg BID, dabrafenib 150 mg BID, Cycle 1 Day 21, T + D without AMG 232, Arm 1 cohort 2 (AMG 232 180 mg), geometric mean (CV%)): 3310 ng/mL | AUC(0-t) ([2]; 150 mg BID, dabrafenib 150 mg BID, Cycle 1 Day 21, T + D without AMG 232, Arm 1 cohort 2 (AMG 232 180 mg), geometric mean (CV%), read-out: AUC6hr): 7450 ng·h/mL | Tmax ([2]; 150 mg BID, dabrafenib 150 mg BID, Cycle 1 Day 21, T + D without AMG 232, Arm 1 cohort 2 (AMG 232 180 mg), median (min-max), read-out: tmax): 1 h | Tmax ([2]; dabrafenib 150 mg BID, Cycle 1 Day 21, T + D without AMG 232, Arm 1 cohort 1 (AMG 232 120 mg), median (min-max), read-out: tmax): 1 h | Cmax ([2]; dabrafenib 150 mg BID, Cycle 2 Day 7, T + D with AMG 232, Arm 1 cohort 1 (AMG 232 120 mg), geometric mean (CV%)): 1200 ng/mL | AUC(0-t) ([2]; dabrafenib 150 mg BID, Cycle 2 Day 7, T + D with AMG 232, Arm 1 cohort 1 (AMG 232 120 mg), geometric mean (CV%), read-out: AUC6hr): 3640 ng·h/mL | Cmax ([2]; dabrafenib 150 mg BID, Cycle 2 Day 7, T + D with AMG 232, Arm 1 cohort 2 (AMG 232 180 mg), geometric mean (CV%)): 1750 ng/mL | AUC(0-t) ([2]; dabrafenib 150 mg BID, Cycle 2 Day 7, T + D with AMG 232, Arm 1 cohort 2 (AMG 232 180 mg), geometric mean (CV%), read-out: AUC6hr): 4910 ng·h/mL | Tmax ([2]; dabrafenib, cycle 1, day 21, without AMG 232 co-administration, read-out: median tmax): 1 h
Compound: CC(C)(C)c1nc(-c2cccc(NS(=O)(=O)c3c(F)cccc3F)c2F)c(-c2ccnc(N)n2)s1 [dabrafenib]
Patients discontinuing dabrafenib due to AEs ([1]; 10 patients in Arm 1, n=2): 20%

— paper PMC9395504 (Investigational New Drugs, 2022)
